Measured values as given in patent US20260041780A1, “ANTIBODY-DRUG CONJUGATE AND USE THEREOF” (MINGHUI PHARMACEUTICAL (HANGZHOU) LIMITED, priority 2022, published 2026).
pIC50: −log10 of the molar value.

Tests used:
Assay in all cases: Inhibition of in vitro proliferation of tumor cells (CellTiter Glo)
Format in all cases: cell-based, human
Calu-6 = details: Calu-6, 120 h incubation
Procedure: (§1) Human-derived tumor cells in logarithmic growth phase were taken, trypsin-digested and resuspended using fresh complete culture medium, counted and adjusted to an appropriate concentration, and added into 96-well cell culture plate at 100 μL/well. The cell culture plate was placed in a 37° C., 5% CO2 incubator and incubated overnight. On the next day, different concentrations of ADC samples to be tested (with the highest final concentration of 1 μM, and 4-fold gradient dilution) or buffer control were added to the corresponding wells of the cell culture plate, and continued to be incubated in a CO2 incubator for 120 h. After equilibrated to room temperature, the test plate was analyzed by using a CellTiter Glo assay kit (Promega, G7558) and a multifunctional enzyme labeling instrument (Enspire 2300, PerkinElmer) to detect luminescence readings. The cellular inhibition rate was calculated according to the following equation: inhibition rate (%)=(1−(RLUADC−RLUblank)/(RLUbuffer−RLUblank))×100%, wherein, RLU represents Relative Luminescence Units. XLFit was utilized to plot the pharmacodynamic inhibition rate curve and to calculate the IC50 values (see Tables 4 and 5).

HepG2 = details: HepG2, 120 h incubation
Procedure: as §1

NCI-H1975 = details: NCI-H1975, 120 h incubation
Procedure: as §1

NCI-N87 = details: NCI-N87, 120 h incubation
Procedure: as §1

Q: “Control ADC2: antibody Ifinatamab conjugated with linker-payload MC-GGFG-DXd” was tested. Which pIC50 (Calu-6) did it give?
A: Its pIC50 is 6.90.

Q: And the pIC50 (HepG2)?
A: The pIC50 was 6.66.

Q: And the pIC50 (NCI-H1975)?
A: Its pIC50 is 6.19.

Q: And the pIC50 (NCI-N87)?
A: The pIC50 was 6.54.
